We go through five compounds from publication PMC4554983 (Bioorganic & medicinal chemistry, 2015).

In experiment [1] the test system is Candida albicans (WTBF-50). In words: Antifungal activity assay. In kind it is cell-based.
In experiment [2] the test system is Cryptococcus neoformans Cn18 (WTBF-106). In words: Antifungal activity assay. In kind it is cell-based. As to conditions: MIC ratio versus P2.
In experiment [3] the test system is C. albicans. In words: Time kill assays. The format is cell-based, Candida albicans.

Molecules are shown by their SMILES. Converted amounts (≈) assume the structure as drawn. Bounds are passed on as bounds.

`C[C@@H]1[C@H](O)[C@@H](C)/C=C/C=C/C=C/C=C/C=C/C=C/C=C/[C@H](O[C@@H]2O[C@H](C)[C@@H](O)[C@H](N)[C@@H]2O)C[C@@H]2O[C@](O)(C[C@@H](O)C[C@@H](O)[C@H](O)CC[C@@H](O)C[C@@H](O)CC(=O)O[C@H]1C)C[C@H](O)[C@H]2C(=O)O` [AMB, Amphotericin B, reference compound] registered an MIC in experiment [1] (Candida albicans) of 0.125 µg/mL (≈ 0.135 µM).

As for `CC1CNC(c2ccc3cc(-c4ccc(-c5cc6ccc(C7=NC(C)CN7)cc6[nH]5)cc4)[nH]c3c2)=N1.O=C(O)C(F)(F)F` (centres unmarked) [Compound P9], the “fold more potent than P2 against Cryptococcus neoformans” value in experiment [2] amounted to 6 fold.

Take `O=C(O)C(F)(F)F.c1cc2cc(-c3ccc(-c4cc5ccc(C6=NCCCN6)cc5[nH]4)cc3)[nH]c2cc1C1=NCCCN1` [Compound P10]: in experiment [3] (2× the MIC), the “time to reduce viable cells below the limit of detection” value is no more than 8 h.

For `CC(=O)O.c1cc2cc(-c3ccc(-c4ccn5cc(C6=NCCCN6)nc5c4)cc3)[nH]c2cc1C1=NCCCN1` [Compound P33], in experiment [1] (MIC ratio versus P35), the “fold more potent than P35 against Candida spp.” value is given as greater than 10 fold.

On to `CC(=O)O.c1cc2cc(-c3ccc(-c4ccc5cc(C6=NCCCN6)oc5c4)cc3)[nH]c2cc1C1=NCCCN1` [Compound P34], for which, in experiment [3] (2× the MIC and 4× the MIC, versus AMB at 4× the MIC), the “fungicidal activity relative to positive control” value is “comparable to that of AMB”.

What is called MIC is the smallest concentration in the dilution series that meets the test's criterion for growth inhibition. Low readings indicate inhibition by little substance, high ones a need for much substance.
